# In patent US10752624B2, “Kinase inhibitors” (Origenis GmbH, priority 2012, dated 2020):
# pIC50: −log10 of the molar value.
# Biological target: LRRK2 (Homo sapiens, UniProt Q5S007)
# Test: LRRK2-LRRK2 G2019S-Assay (LanthaScreen Eu Kinase Binding Assay)
# Details: 5 nM LRRK2, 10 nM tracer 236, 2 nM EU-Anti-GST antibody, 1 h at RT; read-out: LRRK2 Activities: IC50
# Description: In the assay LanthaScreen™ Eu Kinase Binding Assay by Invitrogen Corporation (Carlsbad) the effect of invention of a compound on the phosphorylation is determined by measurement of fluorescence intensity emission ratio based on the binding and displacement of a proprietary, Alexa Fluor® 647-labeled, ATP-competitive kinase inhibitor scaffold (kinase tracer) to the kinase of interest. Binding of the tracer to the kinase is detected using a europium-labeled anti-tag antibody, which binds to the kinase of interest. Simultaneous binding of both the tracer and antibody to the kinase results in a high degree of FRET (fluorescence resonance energy transfer) from the europium (Eu) donor fluorophore to the Alexa Fluor® 647 acceptor fluorophore on the kinase tracer. Binding of an inhibitor to the kinase competes for binding with the tracer, resulting in a loss of FRET. The fluorescence intensity ratio is directly proportional to the amount of peptide phosphorylation.
# To the wells of an 384 well small volume plate (Greiner, Frickenhausen) are added (i) the compound under test in 5% DMSO/distilled water (5 μl), (ii) 5 μl of the kinase antibody mixture resulting in a final concentration 5 nM LRRK2 or their mutants, 2 nM EU-Anti-GST antibody in 1× kinase buffer A. The reaction was started with addition of (iii) 5 μl resulting in a final concentration of 10 nM tracer 236. The assay plate was incubated at RT for 1 h and fluorescence intensity readings were collected using a TECAN M1000 at two wavelengths of λex 340/λem 615 nm and λex 340/λem 665 nm with a delay time of 100 μs and an integration time of 200 μs after 60 minutes. The emission ratio was calculated by division of the acceptor/tracer emission ([…]) by the antibody/donor emission ([…]). The inhibitor concentration was plotted versus the emission ratio to determine the IC50 using XLFit 5.0 (IDBS, Guildford) to fit to a sigmoidal dose response curve with a variable slope.
# LRRK2, sequence (Q5S007 970-2527 limits assumed): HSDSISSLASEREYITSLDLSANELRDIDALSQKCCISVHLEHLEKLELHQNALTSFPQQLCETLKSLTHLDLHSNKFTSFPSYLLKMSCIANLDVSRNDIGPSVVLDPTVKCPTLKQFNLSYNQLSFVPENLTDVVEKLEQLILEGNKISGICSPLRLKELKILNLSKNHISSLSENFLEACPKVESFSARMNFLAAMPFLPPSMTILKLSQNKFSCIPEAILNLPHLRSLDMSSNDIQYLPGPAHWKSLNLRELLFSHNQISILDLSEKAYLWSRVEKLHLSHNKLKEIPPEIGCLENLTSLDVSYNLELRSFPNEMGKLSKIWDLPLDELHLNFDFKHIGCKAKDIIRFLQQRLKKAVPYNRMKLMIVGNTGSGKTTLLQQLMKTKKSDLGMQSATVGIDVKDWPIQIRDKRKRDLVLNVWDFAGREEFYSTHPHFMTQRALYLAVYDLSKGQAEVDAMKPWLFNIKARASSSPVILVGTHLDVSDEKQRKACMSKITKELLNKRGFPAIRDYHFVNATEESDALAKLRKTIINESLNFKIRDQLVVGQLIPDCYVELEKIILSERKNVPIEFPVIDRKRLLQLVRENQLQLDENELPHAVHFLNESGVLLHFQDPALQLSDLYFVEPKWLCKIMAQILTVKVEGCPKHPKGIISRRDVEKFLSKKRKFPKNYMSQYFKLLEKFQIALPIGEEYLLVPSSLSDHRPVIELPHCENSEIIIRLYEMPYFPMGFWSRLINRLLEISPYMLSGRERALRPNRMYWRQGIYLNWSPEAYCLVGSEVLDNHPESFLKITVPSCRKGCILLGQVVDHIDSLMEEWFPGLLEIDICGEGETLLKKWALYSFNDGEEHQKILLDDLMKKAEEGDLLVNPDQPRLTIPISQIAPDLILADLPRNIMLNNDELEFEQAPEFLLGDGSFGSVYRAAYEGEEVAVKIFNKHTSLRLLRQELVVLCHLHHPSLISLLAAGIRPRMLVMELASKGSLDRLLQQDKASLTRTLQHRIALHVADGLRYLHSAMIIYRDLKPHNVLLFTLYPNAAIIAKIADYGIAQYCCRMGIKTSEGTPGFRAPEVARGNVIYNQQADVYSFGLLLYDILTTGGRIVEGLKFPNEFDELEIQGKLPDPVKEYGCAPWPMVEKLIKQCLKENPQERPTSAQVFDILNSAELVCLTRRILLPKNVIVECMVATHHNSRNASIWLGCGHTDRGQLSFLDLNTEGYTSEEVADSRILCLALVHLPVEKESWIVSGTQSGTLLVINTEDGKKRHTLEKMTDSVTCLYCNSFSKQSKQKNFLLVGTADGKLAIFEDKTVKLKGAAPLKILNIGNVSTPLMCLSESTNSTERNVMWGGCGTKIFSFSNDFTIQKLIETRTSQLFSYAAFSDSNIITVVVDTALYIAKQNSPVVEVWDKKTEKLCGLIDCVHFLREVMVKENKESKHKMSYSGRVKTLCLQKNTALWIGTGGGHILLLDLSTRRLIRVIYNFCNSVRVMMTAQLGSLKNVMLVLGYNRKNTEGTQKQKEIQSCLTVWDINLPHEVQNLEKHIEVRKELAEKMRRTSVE
row,Structure (SMILES),pIC50
1,"CCN1C(=O)COc2ccc(Nc3nc4ccc(OC)cc4c4c[nH]nc34)cc21 [Example 318, 4-ethyl-6-((8-methoxy-2H-pyrazolo[3,4-c]quinolin-4-yl)amino)-2H-benzo[b][1,4]oxazin-3(4H)-one]",6.00 to 7.00
2,"COCCn1ncc(Nc2nc3cccc(OC)c3c3cn[nH]c23)c1Br [Example 275, N-(5-bromo-1-(2-methoxyethyl)-1H-pyrazol-4-yl)-9-methoxy-3H-pyrazolo[3,4-c]quinolin-4-amine]",7.00 to 8.00
3,"Cc1c(Nc2nc3ccc(S(C)(=O)=O)cc3c3cn[nH]c23)cnn1C1CCOCC1 [Example 281, N-(5-methyl-1-(tetrahydro-2H-pyran-4-yl)-1H-pyrazol-4-yl)-8-(methylsulfonyl)-3H-pyrazolo[3,4-c]quinolin-4-amine]",7.00 to 8.00
4,"Cn1cccc(Nc2nc3ccc(S(C)(=O)=O)cc3c3cn[nH]c23)c1=O [Example 202, 1-methyl-3-((8-(methylsulfonyl)-3H-pyrazolo[3,4-c]quinolin-4-yl)amino)pyridin-2(1H)-one]",6.00 to 7.00
5,"COc1ccc2nc(Nc3ccc(N4CCOCC4)c(S(C)(=O)=O)c3)c3n[nH]cc3c2c1 [Example 90, 8-methoxy-N-(3-(methylsulfonyl)-4-morpholinophenyl)-2H-pyrazolo[3,4-c]quinolin-4-amine]",6.00 to 7.00
6,"COCCn1cc(Nc2nc3cccc(OC)c3c3cn[nH]c23)c(C)n1 [Example 205, 9-methoxy-N-(1-(2-methoxyethyl)-3-methyl-1H-pyrazol-4-yl)-3H-pyrazolo[3,4-c]quinolin-4-amine]",7.00 to 8.00
7,"COc1cccc2nc(Nc3ccc(C(=O)N4CCCC4)cc3)c3[nH]ncc3c12 [Example 61, (4-((9-methoxy-3H-pyrazolo[3,4-c]quinolin-4-yl)amino)phenyl)(pyrrolidin-1-yl)methanone]",7.00 to 8.00
8,"COc1ccc2nc(Nc3ccc(-c4nnc(S)o4)cc3)c3n[nH]cc3c2c1 [Example 84, 5-(4-((8-methoxy-2H-pyrazolo[3,4-c]quinolin-4-yl)amino)phenyl)-1,3,4-oxadiazole-2-thiol]",7.00 to 8.00
9,"COc1cccc2nc(Nc3cn(C(C)C)nc3C)c3[nH]ncc3c12 [Example 220, N-(1-isopropyl-3-methyl-1H-pyrazol-4-yl)-9-methoxy-3H-pyrazolo[3,4-c]quinolin-4-amine]",> 8.00
10,"CN1CCN(C2CCN(c3ccc(Nc4nc5cccc(S(C)(=O)=O)c5c5cn[nH]c45)cc3)CC2)CC1 [Example 97, N-(4-(4-(4-methylpiperazin-1-yl)piperidin-1-yl)phenyl)-9-(methylsulfonyl)-3H-pyrazolo[3,4-c]quinolin-4-amine]",6.00 to 7.00
11,"CS(=O)(=O)c1ccc2nc(Nc3cc(C(=O)O)n[nH]3)c3n[nH]cc3c2c1 [Example 335, 5-((8-(methylsulfonyl)-2H-pyrazolo[3,4-c]quinolin-4-yl)amino)-1H-pyrazole-3-carboxylic acid]",6.00 to 7.00
12,"CS(=O)(=O)c1ccc2nc(Nc3ccccc3O)c3n[nH]cc3c2c1 [Example 336, 2-((8-(methylsulfonyl)-2H-pyrazolo[3,4-c]quinolin-4-yl)amino)phenol]",6.00 to 7.00
13,"Cc1c(Nc2nc3ccc(S(C)(=O)=O)cc3c3c[nH]nc23)cnn1CC(C)(C)O [Example 326, 2-methyl-1-(5-methyl-4-((8-(methylsulfonyl)-2H-pyrazolo[3,4-c]quinolin-4-yl)amino)-1H-pyrazol-1-yl)propan-2-ol]",6.00 to 7.00
14,"CS(=O)(=O)c1ccc2nc(Nc3ccc4c(c3)N(C(=O)C3CC3)CCC4)c3n[nH]cc3c2c1 [Example 350, cyclopropyl(7-((8-(methylsulfonyl)-2H-pyrazolo[3,4-c]quinolin-4-yl)amino)-3,4-dihydroquinolin-1(2H)-yl)methanone]",6.00 to 7.00
15,"COCCn1ncc(Nc2nc3ccc(S(C)(=O)=O)cc3c3cn[nH]c23)c1Cl [Example 242, N-(5-chloro-1-(2-methoxyethyl)-1H-pyrazol-4-yl)-8-(methylsulfonyl)-3H-pyrazolo[3,4-c]quinolin-4-amine]",7.00 to 8.00
16,"CC(C)(O)Cn1cc(Nc2nc3ccc(S(C)(=O)=O)cc3c3cn[nH]c23)cn1 [Example 317, 2-methyl-1-(4-((8-(methylsulfonyl)-3H-pyrazolo[3,4-c]quinolin-4-yl)amino)-1H-pyrazol-1-yl)propan-2-ol]",7.00 to 8.00
17,"COc1cc(C(=O)N2CCOCC2)ccc1Nc1nc2cccc(OC)c2c2cn[nH]c12 [Example 200, (3-methoxy-4-((9-methoxy-3H-pyrazolo[3,4-c]quinolin-4-yl)amino)phenyl)(morpholino)methanone]",7.00 to 8.00
18,"COc1ccc2nc(Nc3cccc(CN(C)C)c3)c3n[nH]cc3c2c1 [Example 5, N-(3-((dimethylamino)methyl)phenyl)-8-methoxy-2H-pyrazolo[3,4-c]quinolin-4-amine]",6.00 to 7.00

# The remaining lines, values ahead:
row,pIC50,Structure (SMILES)
1,7.00 to 8.00,"COc1ccc2nc(Nc3cnn(C4CCN(C(C)=O)CC4)c3)c3n[nH]cc3c2c1 [Example 112, 1-(4-(4-((8-methoxy-2H-pyrazolo[3,4-c]quinolin-4-yl)amino)-1H-pyrazol-1-yl)piperidin-1-yl)ethan-1-one]"
2,6.00 to 7.00,"COc1ccc2nc(Nc3ccc(N4CCN(C(C)=O)CC4)nc3)c3n[nH]cc3c2c1 [Example 91, 1-(4-(5-((8-methoxy-2H-pyrazolo[3,4-c]quinolin-4-yl)amino)pyridin-2-yl)piperazin-1-yl)ethan-1-one]"
3,7.00 to 8.00,"COc1cccc2nc(Nc3ccc(F)c(S(C)(=O)=O)c3)c3[nH]ncc3c12 [Example 32, N-(4-fluoro-3-(methylsulfonyl)phenyl)-9-methoxy-3H-pyrazolo[3,4-c]quinolin-4-amine]"
4,6.00 to 7.00,"COCCn1ncc(Nc2nc3cccc(OC)c3c3cn[nH]c23)c1C(F)(F)F [Example 268, 9-methoxy-N-(1-(2-methoxyethyl)-5-(trifluoromethyl)-1H-pyrazol-4-yl)-3H-pyrazolo[3,4-c]quinolin-4-amine]"
5,6.00 to 7.00,"Fc1cccc2nc(Nc3ccc(CN4CCOCC4)cc3)c3[nH]ncc3c12 [Example 30, 9-fluoro-N-(4-(morpholinomethyl)phenyl)-3H-pyrazolo[3,4-c]quinolin-4-amine]"
6,> 8.00,"COc1cccc2nc(Nc3cnn(C4CCN(C(C)=O)CC4)c3)c3[nH]ncc3c12 [Example 157, 1-(4-(4-((9-methoxy-3H-pyrazolo[3,4-c]quinolin-4-yl)amino)-1H-pyrazol-1-yl)piperidin-1-yl)ethan-1-one]"
7,7.00 to 8.00,"COCCn1cc(Nc2nc3ccc(S(C)(=O)=O)cc3c3cn[nH]c23)c(C#N)n1 [Example 274, 1-(2-methoxyethyl)-4-((8-(methylsulfonyl)-3H-pyrazolo[3,4-c]quinolin-4-yl)amino)-1H-pyrazole-3-carbonitrile]"
8,7.00 to 8.00,"COc1cccc2nc(Nc3cnn(C(C)C)c3C(N)=O)c3[nH]ncc3c12 [Example 266, 1-isopropyl-4-((9-methoxy-3H-pyrazolo[3,4-c]quinolin-4-yl)amino)-1H-pyrazole-5-carboxamide]"
9,6.00 to 7.00,"COc1ccc2nc(Nc3ccc(F)c(S(C)(=O)=O)c3)c3n[nH]cc3c2c1 [Example 4, N-(4-fluoro-3-(methylsulfonyl)phenyl)-8-methoxy-2H-pyrazolo[3,4-c]quinolin-4-amine]"
10,6.00 to 7.00,"COc1ccc(Nc2nc3cccc(S(C)(=O)=O)c3c3cn[nH]c23)cc1OC [Example 99, N-(3,4-dimethoxyphenyl)-9-(methylsulfonyl)-3H-pyrazolo[3,4-c]quinolin-4-amine]"
